Patent US9914730B2, “Azaquinazoline inhibitors of Atypical protein Kinase C” (Ignyta, Inc., priority 2012, dated 2018)

target: T1, full-length human PKCι (Homo sapiens, UniProt P41743); experiment: PKCι IC50 IMAP assay, full-length PKCι at 150 μM ATP; type: biochemical; settings: read-out: IC50 in IMAP assay against full length PKCi at 150 μM ATP
T1 construct: Recombinant, full-length human PKCι expressed in Sf21 insect cells is also commercially available; purchased; host or cells: Sf21 insect cells
T1 sequence (P41743 1-596): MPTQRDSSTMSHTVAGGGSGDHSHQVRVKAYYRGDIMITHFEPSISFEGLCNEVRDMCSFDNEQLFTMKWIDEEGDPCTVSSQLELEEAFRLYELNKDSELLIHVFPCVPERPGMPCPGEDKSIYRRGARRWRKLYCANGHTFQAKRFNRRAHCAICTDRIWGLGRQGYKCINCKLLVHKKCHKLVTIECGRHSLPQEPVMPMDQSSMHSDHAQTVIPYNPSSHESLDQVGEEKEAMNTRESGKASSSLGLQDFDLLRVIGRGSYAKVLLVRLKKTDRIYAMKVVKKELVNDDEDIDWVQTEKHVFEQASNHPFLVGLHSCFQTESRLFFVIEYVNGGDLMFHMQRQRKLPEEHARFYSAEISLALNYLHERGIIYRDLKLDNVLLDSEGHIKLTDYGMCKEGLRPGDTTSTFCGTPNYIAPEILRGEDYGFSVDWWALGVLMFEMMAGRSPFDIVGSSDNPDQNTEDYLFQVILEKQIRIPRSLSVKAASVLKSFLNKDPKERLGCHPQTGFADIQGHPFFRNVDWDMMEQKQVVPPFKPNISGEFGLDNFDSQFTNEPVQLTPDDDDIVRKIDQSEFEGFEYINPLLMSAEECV
Procedure, shortened: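 IMAP fluorescence polarisation (ex 485/em 530 nm) read-out; % inhibition set from no-compound (0%) and no-enzyme (100%) controls, IC50 from dose-response curve fit. Sf21-expressed full-length enzyme ~15 pM, 100 nM FAM peptide, ATP 150 μM (5× KM^APP), 60 min at RT.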

SMILES | IC50
C[C@H]1CN(c2nc(-c3ccnc(Nc4ncccc4F)c3)nc3cncc(C4CC4)c23)CCN1 [Example 800, {4-[5-Cyclopropyl-4-((S)-3-methyl-piperazin-1-yl)-pyrido[3,4-d]pyrimidin-2-yl]-pyridin-2-yl}-(3-fluoro-pyridin-2-yl)-amine] | < 100 nM
CS(=O)(=O)N[C@H](CNc1nc(-c2ccncc2)nc2cnccc12)Cc1ccccc1 [Example 83, N-(1-phenyl-3-{[2-(pyridin-4-yl)pyrido[3,4-d]pyrimidin-4-yl]amino}propan-2-yl)methanesulfonamide] | 10000 to 40000 nM
Nc1ccc(CC(=O)Nc2cc(-c3nc(N[C@@H]4CCNC4)c4ccncc4n3)ccn2)cc1 [Example 314, 2-(4-Amino-phenyl)-N-{4-[4-((R)-pyrrolidin-3-ylamino)-pyrido[3,4-d]pyrimidin-2-yl]-pyridin-2-yl}-acetamide] | < 100 nM
COc1cncc2nc(-c3ccncc3)nc(N3CC[C@H](O)C3)c12 [Example 50, (3S)-1-[5-methoxy-2-(pyridin-4-yl)-pyrido[3,4-d]-pyrimidin-4-yl]-pyrrolidin-3-ol] | 10000 to 40000 nM
COc1cccc(Nc2cc(-c3nc(N4CC[C@H](CO)C4)c4c(OC)cncc4n3)ccn2)n1 [Example 471, ((S)-1-{5-Methoxy-2-[2-(6-methoxy-pyridin-2-ylamino)-pyridin-4-yl]-pyrido[3,4-d]pyrimidin-4-yl}-pyrrolidin-3-yl)-methanol] | 1000 to 10000 nM
COc1cncc2nc(-c3ccnc(Nc4ccccc4)c3)nc(N3CC[C@@H](O)[C@H](O)C3)c12 (racemic) [Example 437, (±)-trans-1-[5-Methoxy-2-(2-phenylamino-pyridin-4-yl)-pyrido[3,4-d]pyrimidin-4-yl]-piperidine-3,4-diol] | 100 to 1000 nM
CN1CCN(c2cccc(Nc3cc(-c4nc(N5CC[C@@H](O)C5)c5c(C6CC6)cncc5n4)ccn3)c2)CC1 [Example 738, (R)-1-(5-Cyclopropyl-2-{2-[3-(4-methyl-piperazin-1-yl)-phenylamino]-pyridin-4-yl}-pyrido[3,4-d]pyrimidin-4-yl)-pyrrolidin-3-ol] | < 100 nM
N#Cc1ccnc(Nc2cc(-c3nc(N4CC[C@@H](O)[C@H](O)C4)c4c(C5CC5)cncc4n3)ccn2)c1 (racemic) [Example 677, (+/−)-2-{4-[5-Cyclopropyl-4-((trans)-3,4-dihydroxy-piperidin-1-yl)-pyrido[3,4-d]pyrimidin-2-yl]-pyridin-2-ylamino}-isonicotinonitrile] | 100 to 1000 nM
CC(C)(C)c1ccc(Nc2cc(-c3nc(N4CCNCC4)c4c(C5CC5)cncc4n3)ccn2)c(Cl)c1 [Example 529, (4-tert-Butyl-2-chloro-phenyl)-[4-(5-cyclopropyl-4-piperazin-1-yl-pyrido[3,4-d]pyrimidin-2-yl)-pyridin-2-yl]-amine] | < 100 nM
COc1cncc2nc(-c3ccnc(Nc4ccc(C5CCOCC5)cc4)c3)nc(N[C@@H]3CCNC3)c12 [Example 361, (5-Methoxy-2-{2-[4-(tetrahydro-pyran-4-yl)-phenylamino]-pyridin-4-yl}-pyrido[3,4-d]pyrimidin-4-yl)-(R)-pyrrolidin-3-yl-amine] | < 100 nM
c1cc(Nc2cc(-c3nc(N4CCNCC4)c4c(C5CC5)cncc4n3)ccn2)cc(N2CCOCC2)c1 [Example 2023, [4-(5-Cyclopropyl-4-piperazin-1-yl-pyrido[3,4-d]pyrimidin-2-yl)-pyridin-2-yl]-(3-morpholin-4-yl-phenyl)-amine] | < 100 nM
c1ccc2c(c1)CCC(Nc1cc(-c3nc(N4CCNCC4)c4c(C5CC5)cncc4n3)ccn1)C2 (stereo not shown) [Example 2137, [4-(5-Cyclopropyl-4-piperazin-1-yl-pyrido[3,4-d]pyrimidin-2-yl)-pyridin-2-yl]-(1,2,3,4-tetrahydro-naphthalen-2-yl)-amine] | < 100 nM
Fc1cccc(F)c1Nc1cc(-c2nc(N3CCNCC3)c3c(C(F)(F)F)cncc3n2)ccn1 [Example 2193, (2,6-Difluoro-phenyl)-[4-(4-piperazin-1-yl-5-trifluoromethyl-pyrido[3,4-d]pyrimidin-2-yl)-pyridin-2-yl]-amine] | < 100 nM
CN1CCN(c2cccc(Nc3cc(-c4nc(N5CCC(O)C(O)C5)c5c(C6CC6)cncc5n4)ccn3)c2)CC1 (single isomer, unassigned) [Example 753, (3S,4S or 3R,4R)-1-(5-Cyclopropyl-2-{2-[3-(4-methyl-piperazin-1-yl)-phenylamino]-pyridin-4-yl}-pyrido[3,4-d]pyrimidin-4-yl)-piperidine-3,4-diol] | < 100 nM
c1ccc(Nc2cc(-c3nc(N4CCNC5CC54)c4c(C5CC5)cncc4n3)ccn2)cc1 (stereo not shown) [Example 537, {4-[5-Cyclopropyl-4-(2,5-diaza-bicyclo-[4.1.0]hept-2-yl)-pyrido[3,4-d]-pyrimidin-2-yl]-pyridin-2-yl}-phenyl-amine] | < 100 nM
CN1CCN(c2cccc(Nc3cc(-c4nc(N5CC[C@@H](CO)C5)c5c(C6CC6)cncc5n4)ccn3)c2)CC1 [Example 721, [(R)-1-(5-Cyclopropyl-2-{2-[3-(4-methyl-piperazin-1-yl)-phenylamino]-pyridin-4-yl}-pyrido[3,4-d]pyrimidin-4-yl)-pyrrolidin-3-yl]-methanol] | < 100 nM
C[C@@H](Nc1cc(-c2nc(N3CCNCC3)c3c(C4CC4)cncc3n2)ccn1)c1cccc2ccccc12 [Example 2165, [4-(5-Cyclopropyl-4-piperazin-1-yl-pyrido[3,4-d]pyrimidin-2-yl)-pyridin-2-yl]-((R)-1-naphthalen-1-yl-ethyl)-amine] | < 100 nM
CCc1cccc(Nc2cc(-c3nc(N4CCNCC4)c4c(C5CC5)cncc4n3)ccn2)c1 [Example 623, [4-(5-Cyclopropyl-4-piperazin-1-yl-pyrido[3,4-d]pyrimidin-2-yl)-pyridin-2-yl]-(3-ethyl-phenyl)-amine] | < 100 nM
c1ccc2c(Nc3cc(-c4nc(N5CCNCC5)c5c(C6CC6)cncc5n4)ccn3)cccc2c1 [Example 2059, [4-(5-Cyclopropyl-4-piperazin-1-yl-pyrido[3,4-d]pyrimidin-2-yl)-pyridin-2-yl]-naphthalen-1-yl-amine] | < 100 nM
Clc1ccc2[nH]c3nccc(-c4nc(N5CCNCC5)c5c(C6CCC6)cncc5n4)c3c2c1 [Example 2200, 6-Chloro-4-(5-cyclobutyl-4-piperazin-1-yl-pyrido[3,4-d]pyrimidin-2-yl)-9H-pyrido[2,3-b]indole] | < 100 nM
CN1CCN(c2cccc(Nc3cc(-c4nc(N5CCC[C@H](O)C5)c5c(C6CC6)cncc5n4)ccn3)c2)CC1 [Example 737, (S)-1-(5-Cyclopropyl-2-{2-[3-(4-methyl-piperazin-1-yl)-phenylamino]-pyridin-4-yl}-pyrido[3,4-d]pyrimidin-4-yl)-piperidin-3-ol] | < 100 nM
C[C@H]1CN(c2nc(-c3ccnc(Nc4nc(F)c(F)cc4F)c3)nc3cncc(C4CC4)c23)CCN1 [Example 830, {4-[5-Cyclopropyl-4-((S)-3-methyl-piperazin-1-yl)-pyrido[3,4-d]pyrimidin-2-yl]-pyridin-2-yl}-(3,5,6-trifluoro-pyridin-2-yl)-amine] | 1000 to 10000 nM
CC(C)C(=O)Nc1cc(-c2nc(N3CCNCC3)c3c(C4CC4)cncc3n2)ccn1 [Example 583, N-[4-(5-Cyclopropyl-4-piperazin-1-yl-pyrido[3,4-d]pyrimidin-2-yl)-pyridin-2-yl]-isobutyramide] | < 100 nM
COc1cc(F)c(Nc2cc(-c3nc(N4CCNCC4)c4c(C5CC5)cncc4n3)ccn2)c(F)c1 [Example 590, [4-(5-Cyclopropyl-4-piperazin-1-yl-pyrido[3,4-d]pyrimidin-2-yl)-pyridin-2-yl]-(2,6-difluoro-4-methoxy-phenyl)-amine] | < 100 nM
COc1ccc(F)c(Nc2cc(-c3nc(N4CCNCC4)c4c(C5CC5)cncc4n3)ccn2)n1 [Example 762, [4-(5-Cyclopropyl-4-piperazin-1-yl-pyrido[3,4-d]pyrimidin-2-yl)-pyridin-2-yl]-(3-fluoro-6-methoxy-pyridin-2-yl)-amine] | < 100 nM
COc1ccc(F)c(Nc2cc(-c3nc(N4CCNCC4)c4c(C5CC5)cncc4n3)ccn2)c1Cl [Example 634, (2-Chloro-6-fluoro-3-methoxy-phenyl)-[4-(5-cyclopropyl-4-piperazin-1-yl-pyrido[3,4-d]pyrimidin-2-yl)-pyridin-2-yl]-amine] | < 100 nM
c1ccc(Nc2cc(-c3nc(N4CCNCC4)c4c(C5CC5)cncc4n3)ccn2)cc1 [Example 279, [4-(5-Cyclopropyl-4-piperazin-1-yl-pyrido[3,4-d]pyrimidin-2-yl)-pyridin-2-yl]-phenyl-amine] | < 100 nM
CNC(=O)C1CCCN(c2nc(-c3ccnc(Nc4c(F)cccc4F)c3)nc3cncc(C4CC4)c23)C1 (stereo not shown) [Example 707, 1-{5-Cyclopropyl-2-[2-(2,6-difluoro-phenylamino)-pyridin-4-yl]-pyrido[3,4-d]pyrimidin-4-yl}-piperidine-3-carboxylic acid methylamide] | 10000 to 40000 nM
